From ChEMBL document CHEMBL1150792, “Enterobacteriaceae bloodstream infections: presence of integrons, risk factors, and outcome” (2007)

Key:
[1] = test system: Enterobacteriaceae; assay: Antimicrobial activity against integron carrying Enterobacteriaceae assessed as percent resistant isolates; assay type: functional
[2] = test system: Enterobacteriaceae; assay: Antimicrobial activity against non-integron carrying Enterobacteriaceae assessed as percent resistant isolates; assay type: functional

Row | Compound | Activity [1] [%] | Activity [2] [%]
1 | C[C@@H](O)[C@H]1C(=O)N2C(C(=O)O)=C(S[C@@H]3CN[C@H](C(=O)N(C)C)C3)[C@H](C)[C@H]12 [MEROPENEM] | 6 | 2
2 | CO[C@@]1(NC(=O)Cc2cccs2)C(=O)N2C(C(=O)O)=C(COC(N)=O)CS[C@@H]21 (single isomer, unassigned) [CEFOXITIN] | 40 | 16.6
3 | CO/N=C(\C(=O)N[C@@H]1C(=O)N2C(C(=O)O)=C(COC(C)=O)CS[C@H]12)c1csc(N)n1 [CEFOTAXIME] | 41.3 | 6.9
4 | CCN1CCN(C(=O)N[C@@H](C(=O)N[C@@H]2C(=O)N3[C@@H]2SC(C)(C)[C@@H]3C(=O)O)c2ccccc2)C(=O)C1=O [PIPERACILLIN] | 90.2 | 32.1
5 | COLISTIMETHATE SODIUM | 12.5 | 12.5
6 | C[C@@H](O)[C@H]1C(=O)N2C(C(=O)O)=C(SCCNC=N)C[C@H]12 [IMIPENEM ANHYDROUS] | 7.6 | 1.2
7 | NC[C@H]1O[C@H](O[C@H]2[C@H](O)[C@@H](O[C@H]3O[C@H](CO)[C@@H](O)[C@H](N)[C@H]3O)[C@H](N)C[C@@H]2N)[C@H](N)C[C@@H]1O [TOBRAMYCIN] | 41.8 | 8.5
8 | O=C(O)c1cn(C2CC2)c2cc(N3CCNCC3)c(F)cc2c1=O [CIPROFLOXACIN] | 49.4 | 6.9
9 | NCC[C@H](O)C(=O)N[C@@H]1C[C@H](N)[C@@H](O[C@H]2O[C@H](CN)[C@@H](O)[C@H](O)[C@H]2O)[C@H](O)[C@H]1O[C@H]1O[C@H](CO)[C@@H](O)[C@H](N)[C@H]1O [AMIKACIN] | 29.7 | 4.2
10 | CC1(C)S[C@@H]2[C@H](NC(=O)[C@H](N)c3ccccc3)C(=O)N2[C@H]1C(=O)O [AMPICILLIN] | 96.3 | 60
11 | CC(C)(O/N=C(\C(=O)N[C@@H]1C(=O)N2C(C(=O)[O-])=C(C[n+]3ccccc3)CS[C@H]12)c1csc(N)n1)C(=O)O [CEFTAZIDIME] | 36.3 | 4.9
12 | CO/N=C(\C(=O)N[C@@H]1C(=O)N2C(C(=O)O)=C(COC(N)=O)CS[C@H]12)c1ccco1 [CEFUROXIME] | 46.9 | 21.9
13 | C[C@H]1[C@H](NC(=O)/C(=N\OC(C)(C)C(=O)O)c2csc(N)n2)C(=O)N1S(=O)(=O)O [AZTREONAM] | 26.9 | 9.4
14 | COc1cc(Cc2cnc(N)nc2N)cc(OC)c1OC.Cc1cc(NS(=O)(=O)c2ccc(N)cc2)no1 [CO-TRIMOXAZOLE] | 87.7 | 14.5
15 | CO/N=C(\C(=O)N[C@@H]1C(=O)N2C(C(=O)[O-])=C(C[N+]3(C)CCCC3)CS[C@H]12)c1csc(N)n1 [CEFEPIME] | 29.5 | 6.2
